The text below walks through data of ChEMBL document CHEMBL1147144, “Novel styrylpyridines as probes for SPECT imaging of amyloid plaques” (J Med Chem, 2007).

Chain of Amyloid-beta precursor protein (P05067 whole entry): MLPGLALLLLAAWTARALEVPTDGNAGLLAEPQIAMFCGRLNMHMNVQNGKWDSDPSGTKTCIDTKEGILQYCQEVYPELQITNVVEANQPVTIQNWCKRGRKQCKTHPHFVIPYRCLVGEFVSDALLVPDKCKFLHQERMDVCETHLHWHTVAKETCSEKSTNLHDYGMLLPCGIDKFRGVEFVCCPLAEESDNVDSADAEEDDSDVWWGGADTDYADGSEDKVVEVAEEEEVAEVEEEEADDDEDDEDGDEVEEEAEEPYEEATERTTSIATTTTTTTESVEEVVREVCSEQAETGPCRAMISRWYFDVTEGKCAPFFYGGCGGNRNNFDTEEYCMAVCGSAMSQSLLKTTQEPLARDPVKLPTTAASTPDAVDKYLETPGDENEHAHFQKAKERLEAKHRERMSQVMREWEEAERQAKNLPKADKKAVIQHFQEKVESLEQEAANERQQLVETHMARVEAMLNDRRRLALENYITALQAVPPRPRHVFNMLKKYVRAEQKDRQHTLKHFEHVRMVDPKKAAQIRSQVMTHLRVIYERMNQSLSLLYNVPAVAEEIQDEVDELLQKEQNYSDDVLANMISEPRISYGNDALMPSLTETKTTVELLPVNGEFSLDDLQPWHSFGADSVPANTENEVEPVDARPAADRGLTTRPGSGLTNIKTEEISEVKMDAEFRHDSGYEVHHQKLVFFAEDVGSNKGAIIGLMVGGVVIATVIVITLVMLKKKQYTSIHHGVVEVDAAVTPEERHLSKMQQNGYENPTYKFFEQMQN

This test concerns the target Amyloid-beta precursor protein (Homo sapiens, UniProt P05067). As to the kind of experiment: Displacement of […] from Abeta peptide plaques in Alzheimer's disease patient brain.
The Ki is a dissociation constant, usually derived from enzyme kinetics or from competition with a known ligand. The low end stands for a stronger hold on the target, the high end for a looser hold on the target. The molecule `OCCOc1ncc(C=Cc2ccc(O)cc2)cc1Br` had a Ki of 6.8 nM. This lies in the single-digit nanomolar range.

The molecule `CNc1ccc(/C=C/c2cnc(OCCOCCOCCF)c(I)c2)cc1` had a Ki of 9 nM.

Molecule `CN(C)c1ccc(/C=C/c2cnc(OCCO)c(I)c2)cc1` came in with a Ki of 7.5 nM.

As to `CNc1ccc(/C=C/c2cnc(OCCO)c(I)c2)cc1`, affinity was put at a Ki of 8.5 nM.

`Oc1ccc(/C=C/c2cnc(OCCOCCOCCF)c(Br)c2)cc1`: the inhibition constant (Ki) is 14.2 nM.

For the molecule `CN(C)c1ccc(/C=C/c2cnc(OCCOCCOCCF)c(I)c2)cc1`, affinity was put at a Ki of 7.5 nM.

Regarding `CNc1ccc(/C=C/c2cnc(OCCO)c(Br)c2)cc1`, affinity was put at a Ki of 5 nM. This Ki lies about 1.5-fold lower than the previous one.

In turn, `CN(C)c1ccc(/C=C/c2cnc(OCCOCCOCCF)c(Br)c2)cc1` gave a Ki of 6.8 nM.

As for `CNc1ccc(/C=C/c2cnc(OCCOCCOCCF)c(Br)c2)cc1`, the inhibition constant (Ki) turned out to be 4.5 nM.

For `OCCOc1ncc(/C=C/c2ccc(O)cc2)cc1I`, the Ki turned out to be 15.5 nM.

`Oc1ccc(/C=C/c2cnc(OCCOCCOCCF)c(I)c2)cc1`: the affinity, expressed as Ki, was 21 nM.

In turn, `CN(C)c1ccc(/C=C/c2cnc(OCCO)c(Br)c2)cc1` displayed an inhibition constant Ki of 3.6 nM.
